Key:
[1] = molecular target: T1, PheA1A2 (PheA2A1, phenol monooxygenase) (Rhodococcus rhodochrous, UniProt A0ABY1MEQ0); test: HPLC of substrate depletion; assay type: cell-based; details: whole E. coli BL21(DE3) cells expressing PheA1A2; ortho hydroxylation
T1 construct: gene SAMN02745947_03917; both components co-expressed from pET28a in E. coli BL21(DE3), whole cells; with Phenol 2-monooxygenase, flavin reductase component

[2] = molecular target: T1, PheA1A2 (PheA2A1, phenol monooxygenase); test: HPLC of substrate depletion, product by LC-MS; assay type: cell-based; details: whole E. coli BL21(DE3) cells expressing PheA1A2, OD600 15, 100 mM PBS, 0.5 mM 4-chlorophenol; ortho hydroxylation

T1 sequence (A0ABY1MEQ0 1-537): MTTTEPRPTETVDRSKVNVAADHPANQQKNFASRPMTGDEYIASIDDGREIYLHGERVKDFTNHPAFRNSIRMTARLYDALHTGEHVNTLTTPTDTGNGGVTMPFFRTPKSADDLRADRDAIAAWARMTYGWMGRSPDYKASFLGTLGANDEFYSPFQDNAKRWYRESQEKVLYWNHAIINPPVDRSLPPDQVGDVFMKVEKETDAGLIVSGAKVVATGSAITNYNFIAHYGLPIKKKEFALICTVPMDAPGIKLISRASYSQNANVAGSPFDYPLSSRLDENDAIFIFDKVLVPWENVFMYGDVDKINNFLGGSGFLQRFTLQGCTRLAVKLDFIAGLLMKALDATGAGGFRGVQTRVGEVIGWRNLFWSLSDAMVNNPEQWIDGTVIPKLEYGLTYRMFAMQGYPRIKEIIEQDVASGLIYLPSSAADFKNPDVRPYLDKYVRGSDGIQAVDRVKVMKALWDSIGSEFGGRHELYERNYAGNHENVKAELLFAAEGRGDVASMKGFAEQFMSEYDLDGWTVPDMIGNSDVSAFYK

Compound	HPLC of substrate depletion [1]	HPLC of substrate depletion, product by LC-MS [2]
Oc1ccccc1 [phenol]	The ortho hydroxylation enzyme activity to phenol, 4-chlorophenol	–
Oc1ccc(Cl)cc1 [4-chlorophenol]	–	The ortho hydroxylation enzyme activity to phenol, 4-chlorophenol
